# Experimental data published in ChEMBL document CHEMBL6096690, “Synthesis and Biological Evaluation of Peripheral HTR2A Antagonists for Colorectal Cancer” (J Med Chem, 2025).
# The source made the active and inactive calls. The rule behind the calls is not given here.
# Columns and labels:
# [1] = Clearance in male mouse at 2 mg/kg, iv; assay type: ADME, organism-based; conditions: in vivo
# SW-620 [2] = experiment: Induction of cell cycle arrest at sub-G1 phase in human SW620 cells assessed as increase in p21 protein expression at 5 to 10 uM incubated for 24 hrs by Western blotting analysis; assay type: functional, cell-based; conditions: dose 5-10 µM
# HCT-116 [3] = experiment: Antitumor activity against human HCT-116 cells expressing firefly luciferase xenografted in male athymic nude BALB/c mouse assessed as decrease in bioluminescent signals at 50 mg/kg, ip administered once daily by bioluminescence imaging analysis; assay type: functional, organism-based
# SW-620 [4] = experiment: Antitumor activity against human SW620 cells xenografted in male athymic nude BALB/c mouse assessed as tumor growth inhibition at 50 mg/kg, ip administered once daily relative to control; assay type: functional; conditions: read-out: TGI
# HCT-116 [5] = experiment: Antitumor activity against human HCT-116 cells xenografted in male athymic nude BALB/c mouse assessed as increase in cleaved caspase 3 expression at 10 mg/kg, ip measured after 19 days by Immunohistochemical analysis; assay type: functional, organism-based; conditions: time 19.0 day
# [6] = target: 5-hydroxytryptamine receptor 6 (Homo sapiens) (UniProt P50406); experiment: Inhibition of 5HTR6 (unknown origin) at 1 uM relative to control
# CYP1A2 = target: T1, CYP1A2 (Homo sapiens, UniProt P05177); experiment: Inhibition of CYP1A2 (unknown origin) at 10 uM relative to control; assay type: ADME
# T1 sequence (P05177 whole entry): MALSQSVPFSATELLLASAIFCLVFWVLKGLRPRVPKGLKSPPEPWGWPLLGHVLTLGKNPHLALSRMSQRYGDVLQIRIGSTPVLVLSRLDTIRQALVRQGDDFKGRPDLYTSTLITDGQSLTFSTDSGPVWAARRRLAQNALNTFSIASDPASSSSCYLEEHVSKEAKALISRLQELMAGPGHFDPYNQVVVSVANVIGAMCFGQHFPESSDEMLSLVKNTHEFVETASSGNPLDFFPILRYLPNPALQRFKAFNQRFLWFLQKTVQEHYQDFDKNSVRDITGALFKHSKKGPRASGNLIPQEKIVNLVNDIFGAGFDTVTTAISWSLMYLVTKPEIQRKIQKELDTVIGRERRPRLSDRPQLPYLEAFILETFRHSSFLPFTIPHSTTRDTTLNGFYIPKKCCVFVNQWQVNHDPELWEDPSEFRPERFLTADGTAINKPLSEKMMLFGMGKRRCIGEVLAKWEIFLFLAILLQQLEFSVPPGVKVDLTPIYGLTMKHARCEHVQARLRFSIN
# HCT-116 [7] = experiment: Induction of apoptosis in human HCT-116 cells assessed as upregulation of total P53 protein expression at 5 to 10 uM incubated for 24 hrs by Western blotting analysis; assay type: functional, cell-based; conditions: dose 5-10 µM
# [8] = target: 5-hydroxytryptamine receptor 7 (Homo sapiens) (UniProt P34969); experiment: Inhibition of 5HTR7 (unknown origin) at 1 uM relative to control
# [9] = Microsomal stability in mouse liver microsomes assessed as parent compound remaining measured after 30 mins; assay type: ADME, Microsome; conditions: read-out: Stability
# SW480 = experiment: Antiproliferative activity against human SW480 cells assessed as inhibition of cell proliferation incubated for 24 to 48 hrs by CCK-8 assay; assay type: functional, cell-based; conditions: dose 1.5-12.5 µM, time 24-48 hrs
# CYP2C9 = CYP2C9 (Homo sapiens, UniProt P11712); experiment: Inhibition of CYP2C9 (unknown origin) at 10 uM relative to control; assay type: ADME
# SW-620 [10] = experiment: Antiproliferative activity against human SW620 cells assessed as inhibition of cell proliferation incubated for 24 to 48 hrs by CCK-8 assay; assay type: functional, cell-based; conditions: dose 1.5-12.5 µM, time 24-48 hrs
# HCT-116 [11] = experiment: Induction of apoptosis in human HCT-116 cells assessed as increase in cleaved PARP expression incubated for 24 hrs by Western blotting analysis; assay type: functional, cell-based; conditions: dose 5-10 µM
# HCT-116 [12] = experiment: Induction of apoptosis in human HCT-116 cells assessed as increase in cleaved caspase 3 expression incubated for 24 hrs by Western blotting analysis; assay type: functional, cell-based; conditions: dose 5-10 µM
# [13] = Microsomal stability in human liver microsomes assessed as parent compound remaining measured after 30 mins; assay type: ADME, Microsome; conditions: read-out: Stability
# CCD-18Co [14] = experiment: Cytotoxicity against human CCD-18Co cells assessed as inhibition of cell proliferation at 1.5 to 12.5 uM by CCK-8 assay; assay type: toxicity, cell-based; conditions: dose lower 1.5 µM, time lower 24 hrs, dose upper 12.5 µM, time upper 48 hrs
# HCT-116 [15] = experiment: Antitumor activity against human HCT-116 cells xenografted in male athymic nude BALB/c mouse assessed as tumor growth inhibition at 1 mg/kg, ip measured after 19 days relative to control; assay type: functional; conditions: HCT-116, 456 h, time 19 day, read-out: TGI
# CCD-18Co [16] = experiment: Cytotoxicity against human CCD-18Co cells assessed as inhibition of cell proliferation incubated for 24 to 48 hrs by CCK-8 assay; assay type: toxicity, cell-based; conditions: dose lower 1.5 µM, time lower 24 hrs, dose upper 12.5 µM, time upper 48 hrs
# HCT-116 [17] = experiment: Induction of apoptosis in human HCT-116 cells assessed as increase in apoptotic cells at 5 to 10 uM incubated for 24 hrs by Annexin V/propidium iodide staining based FACS assay; assay type: functional, cell-based; conditions: dose 5-10 µM
# [18] = Drug concentration in male ICR mouse plasma at 10 mg/kg, ip measured after 3 hr; assay type: ADME, organism-based
# CYP2C19 = CYP2C19 (Homo sapiens, UniProt P33261); experiment: Inhibition of CYP2C19 (unknown origin) at 10 uM relative to control; assay type: ADME
# [19] = Microsomal stability in rat liver microsomes assessed as parent compound remaining measured after 30 mins; assay type: ADME, Microsome; conditions: read-out: Stability
# [20] = AUCinfinity in male mouse at 2 mg/kg, iv; assay type: ADME, organism-based; conditions: in vivo
# HCT-116 [21] = experiment: Antitumor activity against human HCT-116 cells expressing firefly luciferase xenografted in male athymic nude BALB/c mouse assessed as tumor growth inhibition at 50 mg/kg, ip administered once daily by bioluminescence imaging analysis relative to control; assay type: functional; conditions: read-out: TGI
# [22] = Half life in male mouse at 2 mg/kg, iv; assay type: ADME, organism-based; conditions: in vivo
# HCT-116 [23] = experiment: Antiproliferative activity against human HCT-116 cells assessed as inhibition of cell proliferation at 1.5 to 12.5 uM by CCK-8 assay; assay type: functional, cell-based; conditions: dose 1.5-12.5 µM, time […]
# CYP2D6 = CYP2D6 (Homo sapiens, UniProt P10635); experiment: Inhibition of CYP2D6 (unknown origin) at 10 uM relative to control; assay type: ADME
# HCT-116 [24] = experiment: Induction of apoptosis in human HCT-116 cells assessed as upregulation of acetylated P53 protein expression at 5 to 10 uM incubated for 24 hrs by Western blotting analysis; assay type: functional, cell-based; conditions: dose 5-10 µM
# Sequence of 5-hydroxytryptamine receptor 7 (Homo sapiens) (P34969 whole entry): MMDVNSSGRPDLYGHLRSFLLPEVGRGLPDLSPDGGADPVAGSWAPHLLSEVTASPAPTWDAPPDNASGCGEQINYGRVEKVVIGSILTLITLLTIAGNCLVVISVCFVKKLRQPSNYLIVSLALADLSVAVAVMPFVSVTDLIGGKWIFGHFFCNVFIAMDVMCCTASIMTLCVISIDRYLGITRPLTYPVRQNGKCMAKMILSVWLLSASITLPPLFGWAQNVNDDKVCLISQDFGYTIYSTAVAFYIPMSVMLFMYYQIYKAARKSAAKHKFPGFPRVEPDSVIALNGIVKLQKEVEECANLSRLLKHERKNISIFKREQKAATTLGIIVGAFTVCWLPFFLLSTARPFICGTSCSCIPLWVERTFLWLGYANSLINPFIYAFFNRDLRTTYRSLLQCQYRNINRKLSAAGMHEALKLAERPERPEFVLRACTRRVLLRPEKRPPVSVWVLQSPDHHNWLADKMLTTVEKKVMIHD
# Sequence of CYP2D6 (P10635 whole entry): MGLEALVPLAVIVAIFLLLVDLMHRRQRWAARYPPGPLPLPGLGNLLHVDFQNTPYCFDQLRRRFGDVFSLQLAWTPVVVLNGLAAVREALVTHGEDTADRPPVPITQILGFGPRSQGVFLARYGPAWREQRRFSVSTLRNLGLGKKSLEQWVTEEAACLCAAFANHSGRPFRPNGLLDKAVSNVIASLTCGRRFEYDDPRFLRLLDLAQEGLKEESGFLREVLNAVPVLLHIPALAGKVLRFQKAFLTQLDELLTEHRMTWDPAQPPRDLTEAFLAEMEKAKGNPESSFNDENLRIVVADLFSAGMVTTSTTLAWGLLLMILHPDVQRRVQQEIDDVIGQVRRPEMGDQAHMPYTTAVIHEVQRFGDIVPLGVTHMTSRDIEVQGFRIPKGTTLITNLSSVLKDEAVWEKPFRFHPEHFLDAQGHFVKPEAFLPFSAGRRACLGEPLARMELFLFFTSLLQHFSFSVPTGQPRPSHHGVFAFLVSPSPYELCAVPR
# Sequence of CYP2C19 (P33261 whole entry): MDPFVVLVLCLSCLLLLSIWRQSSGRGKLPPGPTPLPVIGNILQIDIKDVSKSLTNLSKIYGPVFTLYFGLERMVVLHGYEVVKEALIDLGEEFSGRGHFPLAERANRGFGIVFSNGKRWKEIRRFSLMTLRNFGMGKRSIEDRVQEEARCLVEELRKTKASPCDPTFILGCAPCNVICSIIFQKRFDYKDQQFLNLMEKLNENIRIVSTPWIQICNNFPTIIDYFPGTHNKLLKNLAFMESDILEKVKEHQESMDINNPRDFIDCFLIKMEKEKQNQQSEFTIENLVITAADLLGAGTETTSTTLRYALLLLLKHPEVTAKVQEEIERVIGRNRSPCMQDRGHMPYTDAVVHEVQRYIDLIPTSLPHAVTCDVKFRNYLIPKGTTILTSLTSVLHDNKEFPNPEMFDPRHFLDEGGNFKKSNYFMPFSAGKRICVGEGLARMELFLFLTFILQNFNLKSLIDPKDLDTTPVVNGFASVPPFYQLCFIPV
# Sequence of CYP2C9 (P11712 whole entry): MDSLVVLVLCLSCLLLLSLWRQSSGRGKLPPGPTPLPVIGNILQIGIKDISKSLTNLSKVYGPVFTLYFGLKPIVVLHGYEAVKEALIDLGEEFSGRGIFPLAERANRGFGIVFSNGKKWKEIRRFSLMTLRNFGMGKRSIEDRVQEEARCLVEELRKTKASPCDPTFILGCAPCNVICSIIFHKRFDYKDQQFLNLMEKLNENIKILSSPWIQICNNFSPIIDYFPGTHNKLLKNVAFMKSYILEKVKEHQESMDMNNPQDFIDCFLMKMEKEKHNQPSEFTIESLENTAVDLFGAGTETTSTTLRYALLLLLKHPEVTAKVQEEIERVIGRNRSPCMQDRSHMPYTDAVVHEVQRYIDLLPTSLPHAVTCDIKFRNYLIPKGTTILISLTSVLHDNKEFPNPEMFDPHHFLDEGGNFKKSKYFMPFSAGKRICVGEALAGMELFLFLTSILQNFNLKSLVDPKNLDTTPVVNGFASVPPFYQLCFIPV
# Sequence of 5-hydroxytryptamine receptor 6 (Homo sapiens) (P50406 whole entry): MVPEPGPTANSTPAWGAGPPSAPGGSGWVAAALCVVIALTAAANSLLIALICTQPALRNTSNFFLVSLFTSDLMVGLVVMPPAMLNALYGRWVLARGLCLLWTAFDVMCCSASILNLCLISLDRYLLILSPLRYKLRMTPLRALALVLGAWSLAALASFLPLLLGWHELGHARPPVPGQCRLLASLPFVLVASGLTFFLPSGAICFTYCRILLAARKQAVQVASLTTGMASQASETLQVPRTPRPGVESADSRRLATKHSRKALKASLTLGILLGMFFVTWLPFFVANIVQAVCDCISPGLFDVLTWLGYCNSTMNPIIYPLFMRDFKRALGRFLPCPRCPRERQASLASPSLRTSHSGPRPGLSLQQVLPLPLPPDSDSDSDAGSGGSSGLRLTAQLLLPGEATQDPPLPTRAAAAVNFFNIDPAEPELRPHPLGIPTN
compound,measurement,setting,value
Cl.Cl.O=C(NCc1ccc(OCC(O)CN2CCN(c3noc4cc(F)ccc34)CC2)cc1)N(Cc1ccc(F)cc1)C1CCNCC1 (centres undefined),clearance,[1],4.06 L/h/kg
same,Activity,SW-620 [2],Active
same,Activity,HCT-116 [3],Active
same,inhibition in vivo at 50 mg/kg,SW-620 [4],46.9%
same,Activity,HCT-116 [5],Active
same,inhibition,[6],-5%
same,inhibition at 10 µM,CYP1A2,4.6%
same,Activity,HCT-116 [7],Active
same,inhibition,[8],102%
same,remaining at 0.5 h,[9],> 99%
same,Activity,SW480,Dose-dependent-effect
same,inhibition at 10 µM,CYP2C9,5%
same,Activity,SW-620 [10],Dose-dependent-effect
same,Activity,HCT-116 [11],Dose-dependent-effect
same,Activity,HCT-116 [12],Dose-dependent-effect
same,remaining at 0.5 h,[13],> 99%
same,Activity,CCD-18Co [14],Time-dependent-effect
same,inhibition in vivo at 1 mg/kg,HCT-116 [15],38.8%
same,Activity,CCD-18Co [16],Dose-dependent-effect
same,Activity,HCT-116 [17],Active
same,concentration at 3 h,[18],0.271 µg/mL
same,inhibition at 10 µM,CYP2C19,21%
same,remaining at 0.5 h,[19],95.3%
same,AUC(0-inf),[20],0.5 µg·h/mL
same,inhibition in vivo at 50 mg/kg,HCT-116 [21],76.5%
same,half-life,[22],13.9 h
same,Activity,HCT-116 [23],Time-dependent-effect
same,inhibition at 10 µM,CYP2D6,55.1%
same,Activity,HCT-116 [24],Active
